Measured values as given in the supplement of paper PMC10307832.

Legend:
Experiment in all cases: relative viability (nuclei count vs DMSO), 5 days (fraction); higher = more cells survive
[1] = compound: C(C(=O)C(=O)O)Br [Bromopyruvate] + Cc1nc(NC(=O)N2CCC[C@H]2C(N)=O)sc1-c1ccnc(C(C)(C)C(F)(F)F)c1 [Alpelisib] (partner 2 µM)
Procedure, shortened: (§1)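 Lung cancer cell lines were seeded in 1536-well plates and dosed by pin tool the next day, with either a single drug or a fixed anchor-drug dose combined with five library-drug doses (not always all listed) spaced in √10 steps. Five days later, one step fixed the cells and stained their nuclei (final 0.05% Triton X-100, 1% formaldehyde, 1 ug/ml Hoechst), and nuclei were counted on 4× images. Relative viability is the nuclei count in treated wells divided by the count in vehicle wells, and each value is the median of duplicate plates.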

[2] = compound: C(C(=O)C(=O)O)Br [Bromopyruvate] + Cc1nc(Nc2ncc(C(=O)Nc3c(C)cccc3Cl)s2)cc(N2CCN(CCO)CC2)n1 [Dasatinib] (partner 0.075 µM)
Procedure, shortened: as §1

Bicalutamide + Foretinib = compound: CC(O)(CS(=O)(=O)c1ccc(F)cc1)C(=O)Nc1ccc(C#N)c(C(F)(F)F)c1 [Bicalutamide] + COc1cc2c(Oc3ccc(NC(=O)C4(C(=O)Nc5ccc(F)cc5)CC4)cc3F)ccnc2cc1OCCCN1CCOCC1 [Foretinib] (partner 0.25 µM)
Procedure, shortened: as §1

[3] = compound: CC(O)(CS(=O)(=O)c1ccc(F)cc1)C(=O)Nc1ccc(C#N)c(C(F)(F)F)c1 [Bicalutamide] + N=C(N)NC(=N)NCCc1ccccc1 [Phenformin] (partner 250 µM)
Procedure, shortened: as §1

Row | Cell Line | relative viability ([1]; first compound 1 µM) | relative viability ([1]; first compound 3.162 µM) | relative viability ([1]; first compound 10 µM) | relative viability ([1]; first compound 31.62 µM) | relative viability ([1]; first compound 100 µM) | relative viability ([2]; first compound 1 µM) | relative viability ([2]; first compound 3.162 µM) | relative viability ([2]; first compound 10 µM) | relative viability ([2]; first compound 31.62 µM) | relative viability ([2]; first compound 100 µM) | relative viability (Bicalutamide + Foretinib; first compound 0.08 µM) | relative viability (Bicalutamide + Foretinib; first compound 0.253 µM) | relative viability (Bicalutamide + Foretinib; first compound 0.8 µM) | relative viability (Bicalutamide + Foretinib; first compound 2.53 µM) | relative viability ([3]; first compound 0.08 µM) | relative viability ([3]; first compound 0.253 µM) | relative viability ([3]; first compound 0.8 µM) | relative viability ([3]; first compound 2.53 µM)
1 | NCI-H460 | 0.432 | 0.603 | 0.594 | 0.374 | 0.436 | 0.523 | 0.509 | 0.502 | 0.539 | 0.494 | 1 | 1 | 1.17 | 0.963 | 0.559 | 0.524 | 0.834 | 0.52
2 | NCI-H520 | 0.844 | 1.08 | 0.884 | 0.896 | 0.875 | 0.216 | 0.222 | 0.154 | 0.251 | 0.241 | 0.856 | 0.708 | 0.773 | 0.621 | 0.707 | 0.421 | 0.61 | 0.366
3 | NCI-H596 | 0.435 | 0.47 | 0.551 | 0.477 | 0.491 | 0.6 | 0.527 | 0.676 | 0.747 | 0.685 | 0.986 | 0.87 | 0.976 | 0.946 | 0.586 | 0.643 | 0.794 | 0.897
4 | NCI-H647 | 1.12 | 1.15 | 1.46 | 1.48 | 1.2 | 0.156 | 0.218 | 0.215 | 0.187 | 0.169 | 1.08 | 1.16 | 1.23 | 1.14 | 0.646 | 0.596 | 0.758 | 0.385
5 | NCI-H650 | 1.03 | 1.2 | 1.28 | 1.07 | 1.02 | 0.523 | 0.442 | 0.487 | 0.439 | 0.576 | 1.07 | 1.07 | 1.17 | 0.936 | 0.52 | 0.433 | 0.466 | 0.395
6 | NCI-H661 | 0.693 | 0.628 | 0.601 | 0.588 | 0.657 | 0.785 | 1.02 | 0.929 | 0.943 | 1.05 | 1.02 | 1.04 | 1.04 | 0.958 | 0.289 | 0.284 | 0.289 | 0.251
7 | NCI-H727 | 0.683 | 0.66 | 0.629 | 0.547 | 0.597 | 0.474 | 0.301 | 0.29 | 0.401 | 0.314 | 1 | 0.689 | 1.23 | 0.914 | 0.618 | – | 0.734 | 0.821
8 | NCI-H838 | 1.01 | 0.983 | 1.01 | 0.981 | 1.13 | 0.325 | 0.277 | 0.208 | 0.302 | 0.264 | 0.994 | 0.963 | 1.08 | 0.928 | 0.588 | 0.573 | 0.748 | 0.337
9 | NCI-H1355 | 0.833 | 0.961 | 0.774 | 0.872 | 0.903 | 0.674 | 0.761 | 0.766 | 0.713 | 0.786 | 1.03 | 0.963 | 1.1 | 1.03 | 0.456 | 0.44 | 0.481 | 0.492
10 | NCI-H1395 | 1.02 | 1.46 | 1.26 | 1.06 | 0.991 | 0.412 | 0.386 | 0.457 | 0.423 | 0.396 | 0.938 | 0.94 | 1.23 | 0.874 | 0.467 | 0.417 | 0.478 | 0.446
11 | NCI-H1437 | 0.967 | 1.06 | 1.21 | 0.911 | 0.989 | 0.491 | 0.493 | 0.427 | 0.317 | 0.415 | 1.28 | 1.29 | 1.24 | 1.27 | 0.341 | 0.264 | 0.422 | 0.309
12 | NCI-H1563 | 0.984 | 1.02 | 0.825 | 0.978 | 0.809 | 0.487 | 0.47 | 0.563 | 0.402 | 0.426 | 0.888 | 0.872 | 0.89 | 0.897 | 0.695 | 0.718 | 0.654 | 0.629
13 | NCI-H1651 | 0.881 | 1.06 | 0.876 | 0.868 | 0.912 | 0.409 | 0.462 | 0.527 | 0.411 | 0.428 | 0.89 | 0.734 | 1.01 | 0.884 | 0.36 | 0.377 | 0.411 | 0.345
14 | NCI-H1666 | 1.21 | 1.07 | 1.11 | 1.02 | 0.774 | 0.847 | 0.839 | 0.785 | 0.855 | 0.694 | 0.927 | 0.975 | 0.913 | 0.977 | 0.613 | 0.541 | 0.569 | 0.537
15 | NCI-H1734 | 0.624 | 0.728 | 0.684 | 0.663 | 0.704 | 0.462 | 0.436 | 0.548 | 0.44 | 0.365 | 0.925 | 0.731 | 1 | 0.809 | 0.41 | 0.338 | 0.458 | 0.416
16 | NCI-H1755 | 0.95 | 0.925 | 0.968 | 0.963 | 0.97 | 0.439 | 0.46 | 0.469 | 0.464 | 0.475 | 0.895 | 0.883 | 0.96 | 0.853 | 0.651 | 0.595 | 0.596 | 0.551
17 | NCI-H1793 | 0.659 | 0.715 | 0.751 | 0.697 | 0.702 | 0.385 | 0.402 | 0.415 | 0.407 | 0.386 | 0.796 | 0.553 | 0.983 | 0.792 | 0.317 | 0.318 | 0.545 | 0.392
18 | NCI-H1915 | 1.03 | 1.05 | 1.04 | 1.12 | 1.08 | 0.331 | 0.326 | 0.319 | 0.275 | 0.315 | 0.753 | 1.06 | 1.11 | 1.13 | 0.375 | 0.313 | 0.368 | 0.362
19 | NCI-H1944 | 0.8 | 0.85 | 0.904 | 0.821 | 0.858 | 0.235 | 0.255 | 0.213 | 0.196 | 0.205 | 0.837 | 0.749 | 0.981 | 0.775 | 0.216 | 0.181 | 0.238 | 0.217
20 | NCI-H1975 | 0.77 | 0.752 | 0.606 | 0.635 | 0.593 | 0.369 | 0.4 | 0.349 | 0.442 | 0.344 | 1.07 | 0.824 | 0.971 | 0.827 | 0.4 | 0.409 | 0.442 | 0.37
21 | NCI-H1993 | 0.691 | 0.705 | 0.668 | 0.642 | 0.644 | 0.826 | 0.766 | 0.841 | 0.652 | 0.617 | 0.738 | 0.7 | 0.866 | 0.971 | 0.437 | 0.51 | 0.434 | 0.447
22 | NCI-H2009 | 1.11 | 1.15 | 1.21 | 1.07 | 1.01 | 0.281 | 0.297 | 0.279 | 0.243 | 0.202 | 1.35 | 1.23 | 1.19 | 1.17 | 0.504 | 0.491 | 0.469 | 0.423
23 | NCI-H2023 | 0.613 | 0.728 | 0.593 | 0.646 | 0.542 | 0.398 | 0.566 | 0.661 | 0.573 | 0.562 | 0.957 | 0.506 | 0.845 | 0.774 | 0.447 | 0.315 | 0.456 | 0.454
24 | NCI-H2085 | 0.968 | 0.785 | 0.894 | 0.975 | 0.851 | 0.246 | 0.243 | 0.234 | 0.263 | 0.284 | 1.02 | 1.1 | 0.878 | 0.753 | 0.742 | 0.686 | 0.781 | 0.608
25 | NCI-H2087 | 1.03 | 1.14 | 1.02 | 1.25 | 0.829 | 0.807 | 1 | 0.914 | 0.745 | 0.824 | 1.14 | 1.17 | 1.15 | 0.993 | 0.539 | 0.449 | 0.642 | 0.435
26 | NCI-H2126 | 0.796 | 0.755 | 0.768 | 0.751 | 0.744 | 0.659 | 0.594 | 0.611 | 0.622 | 0.587 | 1.21 | 1.19 | 1.36 | 1.18 | 0.519 | 0.528 | 0.55 | 0.49
27 | NCI-H2170 | 0.833 | 0.831 | 0.764 | 0.914 | 0.864 | 0.553 | 0.509 | 0.59 | 0.627 | 0.635 | 0.993 | 1 | 1.1 | 0.98 | 0.418 | 0.412 | 0.429 | 0.47
28 | NCI-H2228 | 0.656 | 0.866 | 0.806 | 0.698 | 0.631 | 0.464 | 0.532 | 0.52 | 0.455 | 0.633 | 0.933 | 0.843 | 1 | 1.02 | 0.356 | 0.371 | 0.58 | 0.291
29 | NCI-H2347 | 1.07 | 1.16 | 1.38 | 0.849 | 1.13 | 0.331 | 0.297 | 0.322 | 0.292 | 0.278 | 1.26 | 1.35 | 1.34 | 1.04 | 0.368 | 0.462 | 0.421 | 0.268
